One experiment deals with NF-kB. Description: NF-kB reporter assay in Jurkat cells stimulated with aCD3/aCD28/PMA. The settings on record: Homo sapiens, Jurkat, Jurkat cells, 1 hr compound incubation, aCD3/aCD28/PMA stimulation 4 hr, One-Glo readout; read-out: NF-kB Reporter Assay IC50. Format: cell-based. The procedure:
Jurkat cells were maintained in complete RPMI 1640 media supplemented with 10% FBS. Prior to the assay, 120 nL of the serial diluted compound was added in each well of 384-well flat bottom white plate (Corning #3570) by using liquid handler Echo550. Jurkat cells were harvested by centrifugation at 120 g for 10 min and resuspended in fresh RPMI 1640 media without serum. 30 μL of cells (25,000 cells) were seeded in each well of 384-well plate containing compound. After 1 hr incubation at 37° C. in a 5% CO2 incubator, 10 μL of diluted aCD3/aCD28/PMA (final concentration at 5 μg/mL, 5 μg/mL and 0.03 μg/mL, respectively) in RPMI 1640 without serum were added to each well. After incubation at 37° C. in 5% CO2 for 4 hr, 30 μL of One-Glo reagent (Promega #E6120) was added into each well. The plate was left at room temperature for 5 min and the signal was measured on EnVision (PerkinElmer).
Compounds in which an IC50 was not measured are designated as “N/A”.
On the technique in general: In a reporter assay the amount or activity of a reporter protein is the signal.

The target of a further experiment is T1, MALT1 (Homo sapiens, UniProt Q9UDY8).
T1 construct: Avi-tagged FL MALT-1 (Pharmaron, stored at −70° C.); Avi tag
T1 sequence (Q9UDY8 1-824): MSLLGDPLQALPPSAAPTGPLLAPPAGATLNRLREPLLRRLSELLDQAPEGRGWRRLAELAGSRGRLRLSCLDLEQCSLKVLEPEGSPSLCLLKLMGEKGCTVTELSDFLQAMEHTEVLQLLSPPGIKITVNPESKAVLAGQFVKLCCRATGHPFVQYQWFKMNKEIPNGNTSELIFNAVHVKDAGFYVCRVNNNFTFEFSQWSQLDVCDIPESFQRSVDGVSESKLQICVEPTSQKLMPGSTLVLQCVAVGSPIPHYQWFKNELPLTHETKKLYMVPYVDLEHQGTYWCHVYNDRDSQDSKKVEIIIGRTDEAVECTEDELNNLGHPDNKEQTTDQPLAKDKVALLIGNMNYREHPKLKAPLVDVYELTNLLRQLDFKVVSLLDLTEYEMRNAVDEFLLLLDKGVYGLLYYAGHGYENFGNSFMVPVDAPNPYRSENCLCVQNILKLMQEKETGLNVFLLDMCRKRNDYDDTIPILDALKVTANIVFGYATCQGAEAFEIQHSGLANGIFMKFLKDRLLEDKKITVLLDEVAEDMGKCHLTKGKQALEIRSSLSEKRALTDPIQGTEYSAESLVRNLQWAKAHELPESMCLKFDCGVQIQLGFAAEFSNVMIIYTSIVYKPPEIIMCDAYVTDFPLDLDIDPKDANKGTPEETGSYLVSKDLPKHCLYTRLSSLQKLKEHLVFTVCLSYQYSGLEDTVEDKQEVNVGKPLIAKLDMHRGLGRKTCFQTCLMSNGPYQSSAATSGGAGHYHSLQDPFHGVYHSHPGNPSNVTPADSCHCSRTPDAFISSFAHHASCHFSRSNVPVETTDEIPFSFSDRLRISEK
Description: MALT-1 Fluorogenic Peptide Cleavage Assay (MALT1 inhibition assay). The experiment is classed as biochemical. The settings on record: Avi-tagged FL MALT-1, Ac-LRSR-AMC peptide substrate, 30 min pre-incubation, 90 min reaction. The procedure: Inhibition of MALT1 activity by the presence of small molecules was evaluated using MALT-1 Fluorogenic Peptide Cleavage Assay. The assay utilizes a quenched AMC-labelled peptide that contains the MALT-1 recognition sequence and cleavage site (LRSR). MALT-1 mediated cleavage of the peptide relieves the quenching and leads to an increase in fluorescence at excitation (342 nm) and emission (441 nm). The following reagents were obtained commercially and used to prepare standard reagent formulations as further described below: […] The standard reagent formulations used in this assay were prepared and stored as follows. A 1.1 M solution of sodium citrate (161.3 g, 500 mL) was prepared and stored at room temperature. A 10% (w/v) CHAPS solution (2.0 g, 20 mL) was prepared and stored at 4° C. A 500 mM HEPES solution having pH of 6.89 was prepared from 200 mL of a 1 M HEPES solution having a pH of 7.5 using concentrated hydrochloric acid and brought to a final volume of 400 mL with […]® H2O. The substrate, 10 mM Ac-LRSR-AMC Peptide, was prepared (10 mg, 1.370 mL DMSO) and stored at -20° C. Compounds were plated to provide a 2% DMSO final concentration using a ProxiPlate-384 Plus F Black 384-shallow well microplate. The assay-ready plates were equilibrated to room temperature. […] DMSO was added only when compound plates had not been DMSO-backfilled to 2%. MALT-1 was thawed and kept on ice. Peptide substrate was thawed on the bench under ambient conditions. A MALT-1 enzyme working stock was prepared from Avi-tagged FL MALT-1 (40 nM in a prepared reagent volume of 16.5 μL) and the reaction buffer (13.0 mL). MALT1 working stock (5 μL) was added to each well of the microplate. MALT-1 was pre-incubated with compounds for 30 minutes at room temperature. […] The plates were covered and incubated on the bench at room temperature for 90 minutes. Fluorescence intensity was determined using a CLARIOstar microplate reader (BMG LABTECH) using the optimised AMC mode. Before taking readings, a 70% gain was applied on the neutral control well. Compound data were normalised to % Inhibition and used to plot sigmoidal concentration response curves to yield various parameters including IC50. […] Compounds in which an IC50 was not measured are designated as “N/A”.

The structures appear in SMILES notation.

As usually defined, the IC50 is the concentration at which inhibition is half-maximal. `Cn1ncc2cccc(NS(=O)(=O)c3ccc(-n4cc(C(F)(F)F)cn4)nc3)c21` [Example I-23, N-(1-Methyl-1H-Indazol-7-yl)-6-(4-(Trifluoromethyl)-1H-Pyrazol-1-yl)Pyridine-3-Sulfonamide]: the concentration for half-maximal inhibition (IC50) in the experiment on NF-kB is less than 400 nM; against MALT1 it was 400 to 1000 nM.
As to `Cc1n[nH]c2cccc(NS(=O)(=O)c3ccc(-n4cc(C(F)(F)F)cn4)nc3)c12` [Example I-24, N-(3-Methyl-1H-Indazol-4-yl)-6-(4-(Trifluoromethyl)-1H-Pyrazol-1-yl)Pyridine-3-Sulfonamide], the IC50 in the experiment with NF-kB was less than 400 nM; on MALT1, 1000 to 2500 nM.
Taken in the same sequence, the figures for `Cn1cc2ccc(Cl)c(NS(=O)(=O)c3ccc(-n4cc(C(F)(F)F)cn4)nc3)c2n1` [Example I-25, N-(6-Chloro-2-Methyl-2H-Indazol-7-yl)-6-(4-(Trifluoromethyl)-1H-Pyrazol-1-yl)Pyridine-3-Sulfonamide] were greater than 2500 nM and 1000 to 2500 nM.
Taken in the same sequence, the figures for `CCc1ccc2cn(C)nc2c1NS(=O)(=O)c1ccc(-n2cc(C(F)(F)F)cn2)nc1` [Example I-26, N-(6-Ethyl-2-Methylindazol-7-yl)-6-[4-(Trifluoromethyl)Pyrazol-1-yl]pyridine-3-Sulfonamide] were greater than 2500 nM and less than 400 nM.
The like results for `COc1ccc2cn(C)nc2c1NS(=O)(=O)c1ccc(-n2cc(C(F)(F)F)cn2)nc1` [Example I-27, N-(6-Methoxy-2-Methylindazol-7-yl)-6-[4-(Trifluoromethyl)Pyrazol-1-yl]pyridine-3-Sulfonamide] were, in that order, 1000 to 2500 nM and less than 400 nM.
On to `COc1ccc2cnn(C)c2c1NS(=O)(=O)c1ccc(-n2ncc(C(F)(F)F)n2)nc1` [Example I-28, N-(6-Methoxy-1-Methyl-1H-Indazol-7-yl)-6-(4-(Trifluoromethyl)-2H-1,2,3-Triazol-2-yl)Pyridine-3-Sulfonamide], for which the results for the IC50 in the experiment with NF-kB and against MALT1 were less than 400 nM and 400 to 1000 nM, respectively.
The like results for `COc1ccc2cnn(C)c2c1NS(=O)(=O)c1ccc(-n2cc(C(F)(F)F)nn2)nc1` [Example I-29, N-(6-Methoxy-1-Methyl-1H-Indazol-7-yl)-6-(4-(Trifluoromethyl)-1H-1,2,3-Triazol-1-yl)Pyridine-3-Sulfonamide] were, in that order, less than 400 nM and less than 400 nM.
Take `COc1ccc2cnn(C)c2c1N(C)S(=O)(=O)c1ccc(-n2ccc(C(F)(F)F)n2)nc1` [Example I-30, N-(6-Methoxy-1-Methylindazol-7-yl)-N-Methyl-6-[3-(Trifluoromethyl) Pyrazol-1-yl] Pyridine-3-Sulfonamide]: the IC50 in the experiment with NF-kB and at MALT1 was less than 400 nM in each case.
Take `Cc1ccc2cnn(C)c2c1NS(=O)(=O)c1ccc(-n2cc(C(F)(F)F)cn2)nc1` [Example I-31, N-(1,6-Dimethyl-1H-Indazol-7-yl)-6-(4-(Trifluoromethyl)-1H-Pyrazol-1-yl)Pyridine-3-Sulfonamide]: the IC50 in the experiment with NF-kB and against MALT1 was less than 400 nM throughout.
For `COc1ccc2cnn(C)c2c1NS(=O)(=O)c1ccc(-n2cc(C(C)C)cn2)nc1` [Example I-32, 6-(4-Isopropyl-1H-Pyrazol-1-yl)-N-(6-Methoxy-1-Methyl-1H-Indazol-7-yl)Pyridine-3-Sulfonamide], the IC50 in the experiment with NF-kB and against MALT1 was less than 400 nM each time.
On to `CCc1ccc2cnn(C)c2c1NS(=O)(=O)c1ccc(-n2ccc(C)n2)nc1` [Example I-33, N-(6-Ethyl-1-Methyl-1H-Indazol-7-yl)-6-(3-Methyl-1H-Pyrazol-1-yl)Pyridine-3-Sulfonamide], for which the IC50 with NF-kB and against MALT1 was less than 400 nM in each case.
For `Cc1ccn(-c2ccc(S(=O)(=O)Nc3c(C)ccc4cnn(C)c34)cn2)n1` [Example I-34, N-(1,6-dimethyl-1H-indazol-7-yl)-6-(3-methyl-1H-pyrazol-1-yl)pyridine-3-sulfonamide], the IC50 is 400 to 1000 nM in the experiment with NF-kB and less than 400 nM on MALT1.
The like results for `COc1cnn(-c2ccc(S(=O)(=O)Nc3cccc4cnn(C)c34)cn2)c1` [Example I-35, 6-(4-Methoxy-1H-Pyrazol-1-yl)-N-(1-Methyl-1H-Indazol-7-yl)Pyridine-3-Sulfonamide] were, in that order, less than 400 nM and greater than 2500 nM.
Turning to `CC(C)c1ccn(-c2ccc(S(=O)(=O)Nc3cccc4cnn(C)c34)cn2)n1` [Example I-36, 6-(3-Isopropyl-1H-Pyrazol-1-yl)-N-(1-Methyl-1H-Indazol-7-yl)Pyridine-3-Sulfonamide], the figures for the half-inhibitory concentration (IC50) in the experiment on NF-kB and against MALT1 were less than 400 nM and greater than 2500 nM, respectively.
Taken in the same sequence, the figures for `Cc1ncn(-c2ccc(S(=O)(=O)Nc3cccc4cnn(C)c34)cn2)n1` [Example I-37, 6-(3-Methyl-1H-1,2,4-Triazol-1-yl)-N-(1-Methyl-1H-Indazol-7-yl)Pyridine-3-Sulfonamide] were 1000 to 2500 nM and greater than 2500 nM.
The like results for `Cn1ncc2cccc(NS(=O)(=O)c3ccc(-n4cc(F)cn4)nc3)c21` [Example I-38, 6-(4-Fluoro-1H-Pyrazol-1-yl)-N-(1-Methyl-1H-Indazol-7-yl) Pyridine-3-Sulfonamide] were, in that order, less than 400 nM and 1000 to 2500 nM.
Regarding `Cn1ncc2cccc(NS(=O)(=O)c3ccc(-n4cc(C#N)cn4)nc3)c21` [Example I-39, 6-(4-Cyano-1H-Pyrazol-1-yl)-N-(1-Methyl-1H-Indazol-7-yl)Pyridine-3-Sulfonamide], the values for the IC50 with NF-kB and against MALT1 were 400 to 1000 nM and greater than 2500 nM, respectively.
Taken in the same sequence, the figures for `Cc1cc(C)n(-c2ccc(S(=O)(=O)Nc3cccc4cnn(C)c34)cn2)n1` [Example I-40, 6-(3,5-Dimethyl-1H-Pyrazol-1-yl)-N-(1-Methyl-1H-Indazol-7-yl)Pyridine-3-Sulfonamide] were less than 400 nM and greater than 2500 nM.
The like results for `Cn1ncc2cccc(NS(=O)(=O)c3ccc(-n4cc([N+](=O)[O-])cn4)nc3)c21` [Example I-41, N-(1-Methylindazol-7-yl)-6-(4-Nitropyrazol-1-yl)Pyridine-3-Sulfonamide] were, in that order, 400 to 1000 nM and less than 400 nM.
Taken in the same sequence, the figures for `Cc1nn(-c2ccc(S(=O)(=O)Nc3cccc4cnn(C)c34)cn2)c(C)c1Cl` [Example I-42, 6-(4-Chloro-3,5-Dimethyl-1H-Pyrazol-1-yl)-N-(1-Methyl-1H-Indazol-7-yl) Pyridine-3-Sulfonamide] were less than 400 nM and greater than 2500 nM.

Source of the values: patent US20240150365A1 (Hotspot Therapeutics, Inc., priority 2022, published 2024).
